From patent publication US20100217003A1, “1,2,3,4-TETRAHYDROISOQUINOLINE DERIVATIVES HAVING EFFECTS OF PREVENTING AND TREATING DEGENERATIVE AND INFLAMMATORY DISEASES” (priority 2006, published 2010)

Legend:
[1] = target: T1, GTP cyclohydrolase I (GTPCH) (Homo sapiens, UniProt P30793); test: Direct effect on catalysis of GTPCH; assay type: biochemical; details: not illustrated
T1 sequence (P30793 1-250): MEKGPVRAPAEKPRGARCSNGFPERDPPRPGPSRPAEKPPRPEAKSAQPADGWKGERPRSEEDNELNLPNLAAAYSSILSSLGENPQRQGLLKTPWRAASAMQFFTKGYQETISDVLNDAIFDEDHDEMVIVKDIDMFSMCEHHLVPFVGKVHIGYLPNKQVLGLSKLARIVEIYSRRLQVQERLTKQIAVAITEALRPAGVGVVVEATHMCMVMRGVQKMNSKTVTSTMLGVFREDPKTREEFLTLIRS

[2] = system: BV-2 cell; test: Production of NADPH oxidase-derived superoxide in LPS-stimulated BV-2 cells (WST-1); assay type: cell-based, mouse
Description: Measurement of Superoxide Production
BV-2 microglial cells were planted in a 96-well Petri dish at 0.5×10^5 cells/ml. After a 24-hour culture, the cells were washed twice with Hank's balanced salt solution (HBSS) without phenol red and treated with EHMTIQ (11a) and WST-1. However, some samples were not treated with 20 ? superoxide dismutase (SOD; 800 UI/ml). All samples were incubaed at 37° C. for 10 minutes. The absorbance of a sample was read at 450 nm using a SpectraMax Plus microplate spectrophotometer. The yield of superoxide was calculated according to difference in absorbance value between the samples with and without SOD.
The activation of a microglial cell led to the activation of NADPH oxidase and the production of superoxide. Accordingly, the assay was performed to determine whether EHMTIQ (11a) affects production of NADPH oxidase-derived superoxide. The LPS-stimulated BV-2 cell samples were treated with various concentrations of EHMTIQ (11a) and then the level of released superoxide was measured. The results are illustrated in FIG. 2.

[3] = system: NF-kB p65; test: NF-kB p65 shift to nucleus in LPS-treated cells (Western blot); assay type: cell-based, mouse; details: 10 (unit as image)
Description: Assay for NF-kB p65 Shift to Nucleus
The cells were washed with cold phosphate buffered saline (PBS) and gently suspended in 400 ? buffer solution containing 10 mM HEPES (pH 7.9), 10 mM KCl, 0.1 mM EDTA, 0.1 mM EGTA, 1 mM DTT and 0.5 mM PMSF. The cell suspension was placed on ice for 15 minutes, and reacted with 25 ? NP-40 (0.5%) for 10 seconds. Cen-trifugation for 30 seconds yielded nuclear pellets, which were then resuspended in 50 ? of cold PBS containing 20 mM HEPES (pH 7.9), 400 mM NaCl, and 1 mM each of DTT, EDTA, EGTA and PMSF. The suspension was vortexted for 15 minutes. The nuclear extract was centrifuged at 11,000×g for 15 minutes to get supernatant solution, whose protein content was measured. Equal amounts of the cell extract (5 ? ) were subjected to electrophoresis in a 10% SDS-polyacrylamide gel and then transferred onto a polyvinylidene difluoride-nitrocellulose membrane. The membrane was blocked with TBST containing 8% skim milk at RT for one hour, incubated with primary antibody, anti-NF-kB p65 antibody (1:500 dilution), at 4° C. overnight, and further incubated with secondary antibody conjugated with horseradish peroxidase for one more hour. Protein bands were detected by a chemiluminescence detection method according to the manufacturer's indication.
A transcription factor, NF-kB, shifts into a nucleus to regulate expression of several inflammatory genes. […]

[4] = system: BV-2 cell; test: Inhibitory effect on NO production in LPS-stimulated BV-2 microglial cells (Griess); assay type: cell-based, mouse
Description: BV-2 microglial cell line, CATH.a neuron line and SK-N-BE(2)C neuron line were cultured in Dulbecco's modified Eagle's medium (DMEM) supplemented with 10% bovine serum, […] penicillin, and 10 ? /ml streptomycin at 37° C. in an atmosphere of 5% CO2 and 95% air. The cells were planted on a polystyrene petri dish at the following densities: BV-2 (2.5×10^5 cells/24 well or 2.6×10^6 cells/60 mm dish; SK− N-BE(2)C (1.5×10^5 cells/24 well); and CATH.a (2.4×10^4 cells/96 well).
Measurement of NO Production
200 ? of cell culture medium fraction and 100 ? of Griess reagent (2.5% […], 1% sulfanilamide and 0.1% naphthylethylenediamine dihydrochloride) were mixed in a 96-well microtiter plate, and the absorbance of a sample was read at 540 nm using a microtiter plate reader (multi-well spectrophotometer). The concentration of nitrite was calculated using a standard curve for sodium nitrite.
To determine whether EHMTIQ (11a) inhibits NO production in an activated […] cell, a mouse microglial cell line, BV-2, was used in this assay. Lipopolysaccharide (LPS)-stimulated BV-2 cell samples were treated with various concentrations of EHMTIQ (11a) and then the NO level of a sample was measured. The results are illustrated in FIG. 1.

[5] = system: COX-2 mRNA; test: Expression of COX-2 genes in LPS-stimulated BV-2 cells (RT-PCR); assay type: cell-based, mouse
Description: RT-PCR for GTPCH, iNOS, TNF-α, IL-1β and COX-2
5 ? each of total RNA samples isolated from BV-2 cells were subjected to reverse-transcription (RT), and then polymerase chain reaction (PCR) for 30 cycles under the conditions of 94° C. for 30 seconds, 60° C. for 40 seconds and 72° C. for one minute. Primers used in the PCR were as follows: iNOS (forward, ATGTCCGAAG-CAAACATCAC; reverse, TAATGTC CAGGAAGTAGGTG), TNF-α (forward, CA-[…] reverse, CAGAGCAATGACTC-CAAAGTAGACCT), IL-1β (forward, […]; reverse, CAGGACAGGTAT AGATTCTTTCCTTT), COX-2 (forward, […]; reverse, […]), GTPCH (forward, GGATACCAGGAGACCAT CTCA; reverse, TAGCATGGTGC-TAGTGACAGT). RT-PCR for B2M was simultaneously performed as internal control. The PCR products were subjected to electrophoresis in a 1.5% agarose gel, thereby confirming the presence of a desired size of single band.
The gene expression of cyclooxigenase-2 (COX-2) stimulating a prostaglandin synthesis causing oxidative stress to neurons increased by the activation of a microglial cell. LPS-stimulated BV-2 cell samples were treated with various concentrations of EHMTIQ (11a), and the expression of COX-2 genes was estimated by RT-PCR. The results are illustrated in FIG. 5.

Q: For `CCC(=O)N1CCc2cc(OC)c(O)cc2C1` [EHMTIQ (11a), 2-ethylcarbonyl-7-hydroxy-6-methoxy-1,2,3,4-tetrahydroisoquinoline], which “direct effect on catalysis of GTPCH” value [1] is on record?
A: did not directly relate to the catalysis of GTPCH

Q: And the superoxide production ([2]; 5 (unit as image))?
A: 62±3.1%

Q: What about the superoxide production ([2]; 10 (unit as image)) of the same molecule?
A: 65±3.1%

Q: And the “NF-kB p65 in nuclear fraction” value [3]?
A: completely inhibited

Q: What about the “NO production induced by LPS, compared with the control not treated with EHMTIQ” value ([4]; 5 (concentration unit printed as image)) of the same molecule?
A: 63±4%

Q: What about the NO production ([4]; 100 (concentration unit printed as image)) of the same molecule?
A: inhibit NO production to the control level

Q: And the IC50 ([4]; Mus musculus, unit printed as image)?
A: 2810 nM

Q: What about the COX-2 expression ([5]; 2.5 (unit as image)) of the same molecule?
A: 62±3%

Q: And the COX-2 expression ([5]; 5 (unit as image))?
A: 75±3%

Q: And the COX-2 expression ([5]; 10 (unit as image))?
A: 83±2%
